Active and inactive are the calls of the source. The calls are words filed in the database; no cut-off is given here.
Key:
[1] = biological target: Transient receptor potential cation channel subfamily A member 1 (Mus musculus) (UniProt Q8BLA8); test: Activation of TRPA1 in wild type mouse DRG neurons assessed as increase in calcium level at 10 uM treated after 10 uM Plumbagin pre-treatment by fura2/AM dye based plate reader analysis relative to control
DRG neuron = test: Increase in calcium level in DRG neurons isolated from TRPA1 deficient mouse at 10 uM by fura2/AM dye based plate reader analysis; assay type: functional, cell-based
[2] = biological target: T1, Transient receptor potential cation channel subfamily A member 1 (Homo sapiens, UniProt O75762); test: Activation of human TRPA1 expressed in HEK293 cells assessed as induction of outward current at 10 uM at -70 to +70 mV by whole cell patch clamp assay; assay type: cell-based
[3] = biological target: T1, Transient receptor potential cation channel subfamily A member 1; test: Activation of human TRPA1 expressed in HEK293 cells assessed as induction of inward current at 10 uM at -70 to +70 mV by whole cell patch clamp assay; assay type: cell-based
[4] = biological target: T1, Transient receptor potential cation channel subfamily A member 1; test: Activation of human TRPA1 expressed in HEK293 cells assessed as increase in calcium level at 20 uM by fura2/AM dye based single cell based plate reader analysis
HEK293 [5] = test: Increase in calcium level in HEK293 cells at 20 uM by fura2/AM dye based single cell based plate reader analysis; assay type: functional; conditions: Homo sapiens
[6] = biological target: T1, Transient receptor potential cation channel subfamily A member 1; test: Activation of human TRPA1 expressed in HEK293 cells assessed as increase in calcium level at 20 uM in presence of TRPA1 channel blocker A-967079 by fura2/AM dye based single cell based plate reader analysis
[7] = biological target: T1, Transient receptor potential cation channel subfamily A member 1; test: Activation of human TRPA1 expressed in HEK293 cells assessed as induction of current at 10 uM at -70 to +70 mV by whole cell patch clamp assay; assay type: cell-based
[8] = biological target: T1, Transient receptor potential cation channel subfamily A member 1; test: Activation of human TRPA1 expressed in HEK293 cells assessed as increase in calcium level by fluo-4 dye based plate reader analysis; assay type: cell-based
[9] = biological target: Transient receptor potential cation channel subfamily A member 1 (Mus musculus) (UniProt Q8BLA8); test: Activation of TRPA1 in wild type mouse DRG neurons assessed as increase in calcium level at 10 uM by fura2/AM dye based plate reader analysis relative to control
HEK293 [10] = test: Increase in calcium level in HEK293 cells at 0.1 to 100 uM by fluo-4 dye based plate reader analysis; assay type: functional, cell-based; conditions: Homo sapiens
[11] = biological target: T1, Transient receptor potential cation channel subfamily A member 1; test: Activation of human TRPA1 expressed in HEK293 cells assessed as induction of inward current at 10 uM at -70 to +70 mV in presence of TRPA1 channel blocker A-967079 by whole cell patch clamp assay; assay type: cell-based
[12] = biological target: T1, Transient receptor potential cation channel subfamily A member 1; test: Activation of human TRPA1 expressed in HEK293 cells assessed as induction of outward current at 10 uM at -70 to +70 mV in presence of TRPA1 channel blocker A-967079 by whole cell patch clamp assay; assay type: cell-based
[13] = Lipophilicity, logP of compound; conditions: octanol/water
[14] = biological target: T1, Transient receptor potential cation channel subfamily A member 1; test: Activation of human TRPA1 expressed in HEK293 cells assessed as induction of current at 1 to 10 uM at +70 mV in presence of intracellular catalase by whole cell patch clamp assay; assay type: cell-based
[15] = biological target: T1, Transient receptor potential cation channel subfamily A member 1; test: Decrease in TRPA1 current amplitude in human TRPA1 expressed HEK293 cells at 10 uM at high voltage by whole cell patch clamp assay; assay type: cell-based
[16] = biological target: T1, Transient receptor potential cation channel subfamily A member 1; test: Activation of human TRPA1 expressed in HEK293 cells assessed as induction of current at 1 to 10 uM at +70 mV in presence of extracellular catalase by whole cell patch clamp assay; assay type: cell-based
[17] = biological target: T1, Transient receptor potential cation channel subfamily A member 1; test: Activation of human TRPA1 expressed in HEK293 cells assessed as induction of current at 1 uM at -70 to +70 mV by whole cell patch clamp assay; assay type: cell-based

Chain of Transient receptor potential cation channel subfamily A member 1 (Mus musculus) (Q8BLA8 whole entry): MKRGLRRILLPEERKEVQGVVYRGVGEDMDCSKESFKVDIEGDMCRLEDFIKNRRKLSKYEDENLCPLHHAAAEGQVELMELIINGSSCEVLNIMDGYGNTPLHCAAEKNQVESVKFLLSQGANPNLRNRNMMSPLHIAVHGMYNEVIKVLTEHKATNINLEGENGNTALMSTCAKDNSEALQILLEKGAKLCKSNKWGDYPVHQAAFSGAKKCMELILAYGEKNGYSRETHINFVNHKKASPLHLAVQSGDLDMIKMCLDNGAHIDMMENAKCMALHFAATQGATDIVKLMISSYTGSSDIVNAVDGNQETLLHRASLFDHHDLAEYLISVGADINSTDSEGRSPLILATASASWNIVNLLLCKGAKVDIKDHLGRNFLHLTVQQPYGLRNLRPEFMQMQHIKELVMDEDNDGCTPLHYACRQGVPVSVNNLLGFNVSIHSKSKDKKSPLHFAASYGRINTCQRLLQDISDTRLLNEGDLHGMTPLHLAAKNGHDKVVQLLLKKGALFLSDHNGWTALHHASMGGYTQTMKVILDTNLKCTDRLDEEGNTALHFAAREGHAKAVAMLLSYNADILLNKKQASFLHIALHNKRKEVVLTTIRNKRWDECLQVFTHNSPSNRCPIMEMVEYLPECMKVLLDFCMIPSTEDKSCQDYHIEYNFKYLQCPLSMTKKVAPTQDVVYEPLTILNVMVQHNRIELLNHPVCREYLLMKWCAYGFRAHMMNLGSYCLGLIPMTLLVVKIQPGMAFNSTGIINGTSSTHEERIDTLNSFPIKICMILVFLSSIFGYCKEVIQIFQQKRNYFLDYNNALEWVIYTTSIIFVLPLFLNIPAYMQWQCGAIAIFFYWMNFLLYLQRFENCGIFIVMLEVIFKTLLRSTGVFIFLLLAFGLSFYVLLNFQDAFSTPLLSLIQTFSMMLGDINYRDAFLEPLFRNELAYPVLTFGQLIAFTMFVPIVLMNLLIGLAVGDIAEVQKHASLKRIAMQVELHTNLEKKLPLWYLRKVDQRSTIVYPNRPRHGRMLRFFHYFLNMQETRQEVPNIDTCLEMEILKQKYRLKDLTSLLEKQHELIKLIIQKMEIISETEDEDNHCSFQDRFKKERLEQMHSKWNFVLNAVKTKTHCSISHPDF
T1 sequence (O75762 whole entry): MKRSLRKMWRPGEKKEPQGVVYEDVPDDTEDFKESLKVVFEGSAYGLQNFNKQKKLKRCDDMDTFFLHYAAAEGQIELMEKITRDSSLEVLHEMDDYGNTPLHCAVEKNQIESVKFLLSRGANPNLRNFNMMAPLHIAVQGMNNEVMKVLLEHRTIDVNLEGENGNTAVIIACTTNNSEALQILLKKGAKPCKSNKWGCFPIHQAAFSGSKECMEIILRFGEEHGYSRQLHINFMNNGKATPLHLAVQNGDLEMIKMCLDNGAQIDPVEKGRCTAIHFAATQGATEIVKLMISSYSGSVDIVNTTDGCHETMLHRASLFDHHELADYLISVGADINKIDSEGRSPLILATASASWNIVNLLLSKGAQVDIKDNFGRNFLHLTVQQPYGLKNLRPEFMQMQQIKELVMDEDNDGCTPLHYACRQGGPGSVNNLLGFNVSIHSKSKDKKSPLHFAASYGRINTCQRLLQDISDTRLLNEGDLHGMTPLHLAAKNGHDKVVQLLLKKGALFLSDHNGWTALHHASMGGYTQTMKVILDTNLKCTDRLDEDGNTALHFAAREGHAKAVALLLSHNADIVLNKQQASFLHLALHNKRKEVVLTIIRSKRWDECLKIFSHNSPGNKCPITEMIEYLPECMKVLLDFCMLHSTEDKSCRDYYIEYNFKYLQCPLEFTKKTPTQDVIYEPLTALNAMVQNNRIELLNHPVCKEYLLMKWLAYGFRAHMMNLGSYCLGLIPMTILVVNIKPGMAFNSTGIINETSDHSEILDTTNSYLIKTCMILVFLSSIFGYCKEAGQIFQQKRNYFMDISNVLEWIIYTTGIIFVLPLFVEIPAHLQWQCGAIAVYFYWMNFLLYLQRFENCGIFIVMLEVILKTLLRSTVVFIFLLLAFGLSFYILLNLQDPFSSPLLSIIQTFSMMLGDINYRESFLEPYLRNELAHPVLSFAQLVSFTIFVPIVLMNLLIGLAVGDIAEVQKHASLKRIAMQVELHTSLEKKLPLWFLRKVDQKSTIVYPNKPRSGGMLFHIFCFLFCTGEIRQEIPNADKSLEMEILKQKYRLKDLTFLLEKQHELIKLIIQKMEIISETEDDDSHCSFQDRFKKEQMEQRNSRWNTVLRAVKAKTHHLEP

| Structure (SMILES) | Activity [4] | Activity (HEK293 [5]) | Activity [6] | EC50 [8] | further results |
| --- | --- | --- | --- | --- | --- |
| C=CCN=C=S | Active | – | – | – | Activity [1]: inactive; Activity (DRG neuron): inactive; Activity [2]: Active; Activity [3]: Active |
| CC(C)=CCC/C(C)=C/COc1ccc2ccc(=O)oc2c1 | Active | – | – | – | – |
| COc1cc(/C=C/C(=O)O)ccc1OC/C=C(\C)CCC=C(C)C | Active | – | – | – | – |
| COc1cc(/C=C/C=O)ccc1OC/C=C(\C)CCC=C(C)C | Active | inactive | inactive | – | – |
| O=C1C=C(O)C(=O)c2ccccc21 | Active | – | – | – | – |
| COc1cc(/C=C/C=O)ccc1OCC=C(C)C [BOROPINAL] | Active | inactive | inactive | 9800 nM | Activity [7]: inactive; Activity [9]: inactive |
| O=C1C=CC(=O)c2c(O)cccc21 [JUGLONE] | Active | inactive | inactive | 1700 nM | Activity (HEK293 [10]): inactive; Activity [2]: Active; Activity [11]: inactive; Activity [12]: inactive; Activity [3]: Active |
| CC1=CC(=O)c2c(O)cccc2C1=O [PLUMBAGIN] | Active | inactive | inactive | 460 nM | logP [13]: 3.69; Activity (DRG neuron): inactive; Activity [14]: 93.5 pA/pF; Activity [9]: 50%; Activity [15]: Active; Activity [16]: 65 pA/pF; Activity [17]: inactive |

Source: ChEMBL document CHEMBL4425086 (J Nat Prod, 2016)
